Test results reported in paper PMC2376372, “3-Bromophenyl 6-acetoxymethyl-2-oxo-2H-1-benzopyran-3-carboxylate inhibits cancer cell invasion in vitro and tumour growth in vivo” (British Journal of Cancer, 2003).
Read-outs that look alike come from different tables or passages of the source.

Key:
[1] = test system: HT1080 fibrosarcoma cells; test: Chemoinvasion assay, type IV collagen-coated Transwell inserts (Boyden chamber); format: cell-based, human; details: type IV collagen-coated filters; for inhibition of HT1080 cell invasion (chemoinvasion) / inhibition at 1 µM: 1 μM; for inhibition of HT1080 cell invasion (chemoinvasion): 48 h; for inhibition at 1 µM / inhibition at 10 µM: Homo sapiens, HT-1080, 48 h, read-out: inhibition of HT1080 cell invasion (chemoinvasion)
Procedure: Plates (24-well) (Falcon, Becton-Dickinson, USA) and 6.5 mm polycarbonate filters (8 μm pore size) of Transwell cell culture chamber inserts (Costar, Netherlands) were coated with 100 μl of type IV collagen purified from human placenta diluted at 200 μg ml^−1 in phosphate-buffered saline (PBS). Coats were left to air-dry overnight in a laminar flow hood under UV light. Uniformity of the coating was assessed by Coomassie blue staining. Before use, coated plates and inserts were washed twice with water and incubated for at least 1 h in serum-free DMEM at 37°C ([Maquoi et al, 1999]).
(§1) HT1080 cells exponentially growing in T-75 flasks (Nunc, Costar, Netherlands) were collected by trypsin–ethylenediaminetetraacetic acid treatment, washed with serum-containing medium and allowed to recover from trypsinisation for at least 30 min at 37°C. Cells were then washed twice in serum-free DMEM and diluted in the same medium supplemented with 0.1% bovine serum albumin (BSA, fraction V, Sigma, USA) to a cell density of 6 × 10^5 cells ml^−1.
(§2) The influence of coumarin derivatives (0.1, 1 and 10 μM) on HT1080 cell invasion and migration was assayed using Transwell cell culture inserts (Costar) and compared to the reference compound GI 129471 (1 μM), an MMP inhibitor ([Wheeler et al, 1998]).
(§3) For chemoinvasion assays, type IV collagen-coated membranes (see above) were used, whereas uncoated membranes were employed for chemotaxis assays. Lower wells of chambers were filled with DMEM supplemented with 20% FCS and 1% BSA (fraction V, ICN) as chemoattractant, in the presence or absence of coumarin derivative (final concentration 0.1, 1 and 10 μM) or GI 129471 (final concentration 1 μM). Cells (6 × 10^4) suspended in DMEM supplemented with 0.1% BSA (fraction V, ICN) were seeded in the upper wells. Chambers were subsequently incubated for 48 and 4 h for chemoinvasion and chemotaxis assays, respectively, in a humid atmosphere at 37°C (in order to maintain a chemotactic gradient, media from both lower and upper wells were renewed after 24 h). After incubation, filters were removed from the chambers, fixed in 4% paraformaldehyde for 15 min (4°C), permeabilised for 10 min in methanol (−20°C) and stained with Giemsa (4%) for 15 min. The upper surface of the filters was scrapped with a cotton swab and cells having reached the lower surface of the filters were visually counted using a light microscope (Vanox AH3, Olympus, Hamburg, Germany) at 20-fold magnification. Each assay was performed in triplicate. Results were expressed as percentages (±s.d.) of the migration of control cells.

[2] = test system: HT1080 fibrosarcoma cells; test: Chemotaxis assay, uncoated Transwell inserts; format: cell-based, human; details: 1 μM, 4 h, uncoated filters
Procedure: as §1, §2, §3

HLE = biological target: T1, HLE (Homo sapiens, UniProt P08246); details: cited from earlier work; for ki/KI or kobs/[I], HLE: pH 8.0, 25°C
T1 construct: purchased Elastase Products Co
T1 sequence (P08246 30-267): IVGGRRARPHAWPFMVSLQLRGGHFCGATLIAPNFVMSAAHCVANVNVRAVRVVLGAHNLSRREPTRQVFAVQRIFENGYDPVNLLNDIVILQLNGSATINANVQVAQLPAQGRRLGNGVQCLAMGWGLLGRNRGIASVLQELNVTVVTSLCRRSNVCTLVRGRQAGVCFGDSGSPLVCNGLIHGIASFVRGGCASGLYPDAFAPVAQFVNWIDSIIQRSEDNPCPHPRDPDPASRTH

α-CT = details: cited from earlier work; for ki/KI or kobs/[I], α-CT: pH 7.5, 25°C
LMW-uPA = biological target: T2, LMW-uPA (Homo sapiens, UniProt P00749); test: Inactivation of LMW-uPA (preincubation method); format: biochemical
T2 construct: Bovine α-CT and LMW-uPA (MW=33 000 Da) were purchased from Sigma; purchased Sigma
Procedure: (§4) Bovine α-CT and LMW-uPA (MW=33 000 Da) were purchased from Sigma, HMW-uPA (MW=54 000 Da) from Choay, trypsin (TRY) and THR from Boehringer-Indelheim (Germany), and MMP-2 and MMP-9 from Calbiochem. Human leucocyte elastase and PM were from Elastase Products Co. and Biogenic, respectively. Except for THR, HMW-uPA, MMP-2 and MMP-9, enzyme concentrations were determined by active-site titrations using the appropriate titrant ([Bender et al, 1966]; [Chase and Shaw, 1970]; [Powers and Gupton, 1977]). […]
(§5) The kinetic parameters for the inhibition were determined either by the preincubation method for LMW-uPA and PM (small aliquots of the reaction mixture were withdrawn at intervals of time and the remaining activity determined), or by the progress curve method (HLE) when the inhibition was too fast to be measured accurately using the preincubation method. […]
(§6) At low inhibitor concentrations, the ratio ki/KI was obtained as kobs/[I]0. […] In the progress curve method, the substrate competes with the inhibitor and the kinetic parameters are determined as previously described ([Doucet et al, 1999]). […]

Plasmin = biological target: T3, Plasmin (Homo sapiens, UniProt P00747); test: Inactivation of plasmin (preincubation method); format: biochemical; details: pH 7.5, read-out: ki/KI or kobs/[I], Plasmin
T3 construct: No; X′; α-CT; HLE; LMW-uPA; Plasmin; purchased Biogenic
T3 sequence (P00747 581-810 limits assumed, species assumed): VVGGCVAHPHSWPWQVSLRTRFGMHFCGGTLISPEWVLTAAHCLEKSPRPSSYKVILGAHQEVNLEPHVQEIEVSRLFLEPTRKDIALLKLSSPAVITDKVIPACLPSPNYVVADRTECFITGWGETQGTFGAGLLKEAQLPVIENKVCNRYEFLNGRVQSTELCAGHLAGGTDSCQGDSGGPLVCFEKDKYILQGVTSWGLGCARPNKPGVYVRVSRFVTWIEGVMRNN
T3 sequence (P00747 97-580 partner limits assumed, species assumed): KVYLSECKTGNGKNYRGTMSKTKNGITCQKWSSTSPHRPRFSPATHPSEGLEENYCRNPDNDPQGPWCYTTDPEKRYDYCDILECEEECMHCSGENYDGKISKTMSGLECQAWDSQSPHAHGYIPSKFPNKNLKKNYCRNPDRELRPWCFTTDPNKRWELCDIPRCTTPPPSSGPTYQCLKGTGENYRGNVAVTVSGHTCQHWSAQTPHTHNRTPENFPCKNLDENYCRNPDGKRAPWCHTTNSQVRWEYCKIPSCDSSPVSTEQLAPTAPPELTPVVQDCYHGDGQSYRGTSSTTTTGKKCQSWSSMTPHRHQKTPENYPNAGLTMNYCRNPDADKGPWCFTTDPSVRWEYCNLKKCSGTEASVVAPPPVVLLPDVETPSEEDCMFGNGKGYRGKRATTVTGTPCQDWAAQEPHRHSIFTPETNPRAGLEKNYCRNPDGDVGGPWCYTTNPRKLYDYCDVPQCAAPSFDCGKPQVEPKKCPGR
Procedure: as §4, §5, §6

Structure (SMILES): CNC(=O)[C@H](Cc1ccccc1)NC(=O)[C@H](CC(C)C)[C@H](CSc1ccccc1)C(=O)NO [GI 129471, reference compound]
- inhibition of HT1080 cell invasion (chemoinvasion) [1]: 60%
- chemotaxis inhibition [2]: 30%
- chemotaxis inhibition ([2]; listed as reference compound): 20–30%

Structure (SMILES): O=C(Oc1cccc(Cl)c1)c1cc2ccccc2oc1=O [compound 1]
- inhibition at 1 µM [1]: 50%
- inhibition at 10 µM [1]: 65%
- ki/KI or kobs/[I], HLE (HLE; ref Pochet et al (2000)): 610^a M^−1 s^−1
- ki/KI or kobs/[I], α-CT (α-CT; ref Pochet et al (2000)): <500^a M^−1 s^−1

Structure (SMILES): Cc1ccc2oc(=O)c(C(=O)Oc3cccc(Cl)c3)cc2c1 [compound 2]
- inhibition at 1 µM [1]: 50%
- inhibition at 10 µM [1]: 70%
- ki/KI or kobs/[I], HLE (HLE; ref Pochet et al (2000)): 1100^a M^−1 s^−1
- ki/KI or kobs/[I], α-CT (α-CT; ref Pochet et al (2000)): 9400^a M^−1 s^−1

Structure (SMILES): O=C(Oc1cccc(Cl)c1)c1cc2cc(CCl)ccc2oc1=O [compound 3, 3-chlorophenyl 6-chloromethyl-2-oxo-2H-1-benzopyran-3-carboxylate]
- inhibition at 10 µM [1]: 30%
- ki/KI or kobs/[I], HLE (HLE; ref Pochet et al (1996)): 630^b M^−1 s^−1
- mode of inhibition of HLE (HLE; ref Pochet et al, 1996, 2000): transiently inactivated
- kinact/KI (LMW-uPA; pH 7.5, read-out: ki/KI or kobs/[I], LMW-uPA): 336 M⁻¹ s⁻¹
- reactivation of inhibited LMW-uPA (LMW-uPA; spontaneously after 18 h incubation or after treatment with NH2OH (pH 7.5, 25°C)): No reactivation
- ki/KI or kobs/[I], α-CT (α-CT; ref Pochet et al (1996)): 762700^b M^−1 s^−1
- mode of inhibition of α-CT (α-CT; ref Pochet et al, 1996, 2000): suicide substrate leading to enzyme irreversible inhibition
- kinact/KI (Plasmin): 600 M⁻¹ s⁻¹

Structure (SMILES): CC(=O)OCc1ccc2oc(=O)c(C(=O)Oc3ccccc3)cc2c1 [compound 5]
- inhibition at 1 µM [1]: 30%
- inhibition at 10 µM [1]: 50 to 60%

Structure (SMILES): CC(=O)OCc1ccc2oc(=O)c(C(=O)Oc3cccc(F)c3)cc2c1 [compound 6]
- inhibition at 1 µM [1]: 80%
- melting point: 170 to 172 °C

Structure (SMILES): CC(=O)OCc1ccc2oc(=O)c(C(=O)Oc3cccc(I)c3)cc2c1 [compound 8]
- inhibition of HT1080 cell invasion (chemoinvasion) [1]: quite similar to that observed with the reference compound
- melting point: 169 to 170 °C
